Results: article PMC9499525, “Tissue-restricted inhibition of mTOR using chemical genetics” (Proceedings of the National Academy of Sciences of the …, 2022)

Key:
[1] = test system: MCF7 cells (with/without FKBP12 V55G-HA; mTOR F2108L); assay: Cell growth by CellTiter-Glo in MCF7 cells; format: cell-based, human; details: 72 h treatment
Description: All cell lines were maintained in DMEM (Gibco) supplemented with 10% heat-inactivated FBS (Axenia Biologix) at 37 °C in 5% CO2. Flp-In T-REx 293 cells were obtained from Thermo Fisher supplemented with 15 µg/mL blasticin and 100 µg/mL Zeocin. Flp-In T-REx 293 FKBP12 V55G cells were supplemented with 15 µg/mL blasticin and 150 µg/mL hygromycin B. FKBP12 V55G expression was induced with 1 µg/mL doxycycline 24 h prior to drug treatments. MCF7 cells were obtained from ATCC (American Type Culture Collection), and MCF7 mTOR F2108L cells were described previously ([30]). When indicated, cells were treated with drugs at 60–80% confluency at a final DMSO concentration of 0.1%. At the end of the treatment period, cells were placed on ice and washed once with PBS. […] Lysate concentration was determined by Bradford assay (Thermo Fisher) and adjusted to 2 mg/mL with additional RIPA buffer. […]
Cells were seeded into 96-well tissue-culture treated plates (Greiner) and were allowed to incubate for 24 h. […] Cell viability was assessed by CellTiter-Glo (Promega). […] Luminescence was measured on a Tecan Spark 20M. […]
Human FKBP12 coding sequence was cloned a pET-47b bacterial expression vector using Gibson assembly and a C-terminal HA-tag was added by QuickChange PCR. FKBP12 proteins were expressed as 8xHis fusions in E. coli BL21 (DE3) cells. […]

[2] = PAMPA membrane permeability; format: in vitro ADME; details: 100 µM in PBS, LC-MS
Description: PAMPA and Caco-2 membrane permeability assays
PAMPA was performed by Quintara Discovery as described previously (2). Compounds were
analyzed at 100 µM in PBS and measured using liquid chromatography-mass spectrometry (LC-

CCO/N=C1/C[C@@H]([C@H](C)C[C@@H]2CC[C@@H](O)[C@H](OC)C2)OC(=O)[C@@H]2CCCCN2C(=O)C(=O)[C@]2(O)O[C@@H](CC[C@H]2C)C[C@H](OC)/C(C)=C/C=C/C=C/[C@@H](C)C[C@@H](C)C(=O)[C@H](OC)[C@H](O)/C(C)=C/[C@H]1C [Rapa*-3Z]
Cell growth inhibition, MCF7 cells with and without FKBP12 V55G ([1]; CellTiter-Glo): activity was restricted to the mutant FKBP12-expressing cells
Cell growth, MCF7 mTOR F2108L cells ([1]; rapamycin resistance mutation): had no effect on the growth of these cells
Papp at 5 h, 100 µM [2]: 0.053 ×10⁻⁶ cm/s
Stability under experimental conditions (fly food, room temperature) (15 days, 100 µM): at least 15 d
Decomposition to rapamycin after prolonged storage (storage under experimental conditions, wild-type larvae readout): does not decompose to rapamycin
